{"source": "patent US20080119558A1", "about": "“Drug for Inhibiting Production of Matrix Metalloprotease-9” (Japan Science And Technology Agency, priority 2002, published 2008)", "key": {"MMP-9": {"test_system": "MMP-9", "assay": "Detection of MMP-2 and MMP-9 by gelatin zymography in conditioned media of cultured human foreskin keratinocytes", "assay_type": "cell-based", "details": "HFKs; for concentration of LMB in the medium at which the production of MMP-9 is inhibited: 24 hours", "method": "A foreskin of a neonate was treated at 4° C. for 16 hours by a disperse having a casein decomposition activity of 25.0 caseinolytic units/ml. Epidermal was peeled from dermis using a forceps, then, the epidermal was treated with 0.05% trypsin for 5 minutes. The separated human foreskin keratinocytes (HFKs) were allowed to incubate at 37° C. in a plate having a keratinocyte-SFM medium (manufactured by Invitrogen), and sub-cultured over three generations. Then, into four plates obtained by sub-culturing human foreskin keratinocytes (HFKs) over three generations, LMB was added so that the concentrations in the medium were 0 nM, 0.4 nM, 2 nM and 10 nM, respectively, further, allowed to incubate at 37° C. for 24 hours. Then, four conditioned media of the keratinocyte-SFM medium were collected from the four plates, and stored at −30° C. until use in the following detection of MMP-2 and MMP-9 by a gelatin zymography method.\nPrior to detection of MMP-2 and MMP-9 by a gelatin zymography method, four conditioned media collected in <Culturing of human epidermal keratinocyte cell> were all allowed to incubate at 35° C. for 1 hour. Then, the above-mentioned conditioned media were dissolved in a solution of pH 7.4 containing 0.05 M Tris-HCl, 5 mM CaCl2, 1% SDS (sodium dodecyl-sulfate) and 5% glycerol, respectively, and the solutions were used as samples for a gelatin zymography method. MMP-2 and MMP-9 were separated from the samples by an SDS-PAGE method using 7.5% polyacrylamide gel containing 0.5% gelatin. After separation by an SDS-PAGE method, the separated gel was washed with a solution containing 2.5% Triton X-100 for 1 hour, to remove SDS. For allowing MMP-2 and MMP-9 separated in the separated gel to decompose gelatin in the separated gel, the separated gel was allowed to incubate at 35° C. for a given time in a buffer solution for reaction (standard conditions: 0.05 M Tris-HCl (pH 7.4)/0.15 M NaCl/5 MM CaCl2/0.02% NaN3). Staining of the separated gel was conducted using a staining solution containing 0.1% Amideblack B-10, and decolorization was conducted using a decolorization solution containing 10 vol % of acetic acid and 30 vol % of methanol.\n(§1) Culturing of a human epidermal keratinocyte and detection of MMP-2 and MMP-9 by a gelatin zymography method were conducted by the same manner as in Example 1 except that LMB was added into four plates obtained by sub-culturing human foreskin keratinocytes (HFKS) over three generations, so that the concentrations in the medium were 0 nM, 0.4 nM, 2 nM and 10 nM, respectively, and a calcium chloride aqueous solution was added so that the four concentrations of Ca^+ in the medium were all 1.5 mM, instead of adding LMB into four plates obtained by sub-culturing human foreskin keratinocytes (HFKs) over three generations, so that the concentrations in the medium were 0 nM, 0.4 nM, 2 nM and 10 nM, respectively, in culturing of human epidermal keratinocyte.\nas §1, with “(HFKs)” for “(HFKS)”, “TGF-β” for “a calcium chloride aqueous solution”, “TGF-β” for “Ca^+”, “1 ng/ml,” for “1.5 mM,”, “keratinocytes. […]” for “keratinocyte.”"}, "mRNA of human MMP-9 gene": {"test_system": "mRNA of human MMP-9 gene", "assay": "Detection of mRNA of human MMP-9 gene and human GAPDH gene by RT-PCR in human foreskin keratinocytes", "assay_type": "cell-based", "details": "10 nM LMB", "method": "A foreskin of a neonate was treated at 4° C. for 16 hours by a disperse having a casein decomposition activity of 25.0 caseinolytic units/ml. Epidermal was peeled from dermis using a forceps, then, the epidermal was treated with 0.05% trypsin for 5 minutes. The separated human foreskin keratinocytes (HFKs) were allowed to incubate at 37° C. in a plate having a keratinocyte-SFM medium (manufactured by Invitrogen), and sub-cultured over three generations. Then, into two plates obtained by sub-culturing human foreskin keratinocytes (HFKS) over three generations, LMB was added so that the concentrations in the medium were 0 nM and 10 nM, respectively, further, allowed to incubate at 37° C. for 24 hours.\nExtraction of all RNAs from cultured human foreskin keratinocytes (HFKs) was conducted according to a method of Wachi et al. (Wachi et al. (1995) FEBS Lett. 36B, 215-219), and the extracted all RNAs were stored at −80° C. in the form of solution having a concentration of 1 μg/ml. A RT-PCR method was conducted using TaKaRa RNA PCR kit (manufactured by TaKaRa). For amplifying 277 base pairs of cDNA for human MMP-9, a sense primer (SEQ ID No. 1) was used for the 5′ end situated at 116 to 136 base pairs, and an antisense primer (SEQ ID No. 2) was used for the 3′ end situated at 372 to 392 base pairs. For amplifying 478 base pairs of cDNA for human GAPDH, a sense primer (SEQ ID No. 3) was used for the 5′ end situated at 547 to 566 base pairs, and an antisense primer (SEQ ID No. 4) was used for the 3′ end situated at 1005 to 1024 base pairs. Reverse transcription of RNA was conducted by incubating at 42° C. for 1 hour. Incubation in PCR of cDNA obtained by reverse transcription was conducted according to the following temperature profile. Namely, for every one cycle, modification of cDNA was conducted at 94° C. for 2 minutes, annealing of a primer was conducted at 60° C. for 30 seconds, and synthesis of a DNA chain by a DNA polymerase was conducted at 72° C. for 1 minute. A solution obtained after 30 cycles was separated, and electrophoresis was conducted using an agarose gel containing ethidium bromide, and the resulted band was observed under ultraviolet ray.\nCulturing of a human epidermal keratinocyte and detection of mRNA of a human MMP-9 gene and mRNA of a human GAPDH gene by a RT-PCR method were conducted by the same manner as in Example 6 except that LMB was added into two plates obtained by sub-culturing human foreskin keratinocytes (HFKs) over three generations, so that the concentrations in the medium were 0 nM and 10 nM, respectively, and a calcium chloride aqueous solution was added so that the two concentrations of Ca^+ in the medium were all 1.5 mM, instead of adding LMB into two plates obtained by sub-culturing human foreskin keratinocytes (HFKs) over three generations, so that the concentrations in the medium were 0 nM and 10 nM, respectively, in culturing of human epidermal keratinocytes. […]"}, "MMP-9 promoter sequence": {"test_system": "MMP-9 promoter sequence", "assay": "Measurement of MMP-9 promoter transcription activity by luciferase assay in human foreskin keratinocytes", "assay_type": "cell-based", "details": "10 nM LMB; for transcription activity of MMP-9: 24 hours; for Promoter activity suppressed to (fraction of no LMB addition): vector-1 containing KRE-M9 (−73 to +16)", "protocol": "A foreskin of a neonate was treated at 4° C. for 16 hours by a disperse having a casein decomposition activity of 25.0 caseinolytic units/ml. Epidermal was peeled from dermis using a forceps, then, the epidermal was treated with 0.05% trypsin for 5 minutes. The separated human foreskin keratinocytes (HFKs) were allowed to incubate at 37° C. in a 24-well plate having a keratinocyte-SFM medium (manufactured by Life Technologies) containing 0.09 mM Ca^+, and sub-cultured over three generations.\nA −73 to +16 base sequence containing KRE-M9 of an MMP-9 promoter sequence and a −56 to +16 base sequence containing no KRE-M9 were inserted into pGL3-basic vector (manufactured by Promega) which is a luciferase expression vector containing a luciferase gene according to a method of Kobayashi et al. (Kobayashi et al. (2001) EMBO Rep. 2, 604 to 608), to prepare vector-1 and vector-2.\nUsing the vector-1 and vector-2 and Fugene 6 (manufactured by Roche) which is a reagent for gene introduction, a vector-1 solution and a vector-2 solution each having a DNA concentration of 3 μg/1 ml were prepared, respectively. Then, the vector solution 1 was added to solutions in 12 wells and the vector solution 2 was added to solutions in the remaining 12 wells each at 37° C., of HFKs culture solutions in the 24-well plates obtained in <Culturing of human epidermal keratinocyte> and gene introduction was performed, further, 10 nM LMB was added to solutions in 6 wells to give a 6-well LMB added plate 1 and LMB was not added to solutions in the remaining 6 wells to give a 6-well LMB no-addition plate 1, of the 12 wells obtained by addition of the vector-1 solution, and 10 nM LMB was added to solutions in 6 wells to give a 6-well LMB added plate 2 and LMB was not added to solutions in the remaining 6 wells to give a 6-well LMB no-addition plate 2, of the 12 wells obtained by addition of the vector-2 solution, then, they were allowed to stand still for 3 hours. Gene introduction of a luciferase gene effected as described above induces the production of MMP-9 and the production of luciferase, and by measuring the light emitting intensity in a light emitting reaction by luciferase by a micro press counter, the production of MMP-9 can be monitored.\nMeasurement of the transcription activity was conducted by a luciferase assay. The activity of luciferase was measured by Luciferase assay system (manufactured by Promega). As a micro press counter, Microbeta (manufactured by Perkin-Elmer) was used. In this measurement, the total transcription activity after 12 hours was measured using 3 wells among 6 wells, further, the total transcription activity after 24 hours was measured using the remaining 3 wells, each using the 6-well LMB added plate 1, 6-well LMB no-addition plate 1, 6-well LMB added plate 2 and 6-well LMB no-addition plate 2. […] The standard deviation is shown by error bar. […]"}, "[1]": {"test_system": "skin of hairless mice (Hoes: HR-1)", "assay": "Ultraviolet B irradiated hairless mouse skin, external application, histology (hematoxylin and eosin)", "assay_type": "in vivo", "method": "Ten 8-weeks old female hairless mice (Hoes: HR-1) were previously bred for 1 week. Five mice (mouse A1, mouse B1, mouse C1, mouse D1, mouse E1) were irradiated at the back with ultraviolet B (UV) of 300 mJ (about 3 MED (minimal erythema dose)), and five mice (mouse A2, mouse B2, mouse C2, mouse D2, mouse E2) were not irradiated with ultraviolet ray. Immediately after irradiation with ultraviolet ray and 24 hours after irradiation with ultraviolet ray, leptomycin B was administered by externally applying a solution of a concentration of 10 μg/ml (20 μM) to mouse B1 and mouse B2, a solution of a concentration of 1 μg/ml (2 μM) to mouse C1 and mouse C2, a solution of a concentration of 100 ng/ml (200 nM) to mouse D1 and mouse D2 and a solution of a concentration of 10 ng/ml (20 nM) to mouse E1 and mouse E2, each in an amount of 0.1 ml by a brush, as a solution containing leptomycin B dissolved in 70% ethanol. To mouse A1 and mouse A2, about 0.1 ml of 70% ethanol was applied by a brush. Then, skins were collected from mouse A1 to mouse E1 irradiated with ultraviolet ray 48 hours after irradiation and mouse A2 to mouse E2 not irradiated with ultraviolet ray. The collected skins were fixed with formalin and embedded in paraffin, then, the slices were stained with hematoxylin and eosin. Slices of skins collected from mouse A1, mouse B1, mouse C1, mouse D1 and mouse E1 and stained and slices of skins collected from mouse A2, mouse B2, mouse C2, mouse D2 and mouse E2 and stained were observed by ECLIPSE E1000M optical microscope (manufactured by NIKON), and the results are shown in FIG. 5. In FIG. 5, A1 to E1 correspond to slices of skins collected from mouse A1 to mouse E1 and stained, respectively, and A2 to E2 correspond to slices of skins collected from mouse A2 to mouse E2 and stained, respectively, and the length of a bar indicates 100 μm."}, "[2]": {"test_system": "P388 cell, Lewis Landa carcinoma cell, B16 melanoma cell, Erich carcinoma cell", "details": "tumor cells transplanted to mouse; anti-tumor agent containing leptomycin B, parenteral or oral; cited from earlier work"}, "[3]": {"details": "UVB 300 mJ irradiated mice B1 to E1, external application 10 μg/ml to 10 ng/ml in 70% ethanol, 0.1 ml, at 0 and 24 hours, skin at 48 hours"}}, "data": [{"smiles": "CCC(=C/[C@H](C)C/C=C/C(C)=C/[C@@H](C)C(=O)[C@@H](C)[C@H](O)[C@@H](C)C/C(C)=C/C(=O)O)/C=C/[C@@H]1OC(=O)C=C[C@@H]1C", "note": "[LMB, Leptomycin B]", "values": [{"measurement": "specificity of inhibition of the production of MMP-9 as compared with MMP-2", "setting": "MMP-9; gelatin zymography, FIG. 1", "value": "inhibits the production of MMP-9 more specifically as compared with MMP-2"}, {"measurement": "concentration of LMB in the medium at which the production of MMP-9 is inhibited", "setting": "MMP-9; stimulating differentiation by TGF-β 1 ng/ml, FIG. 1 (C)", "value": "≥ 2", "unit": "nM"}, {"measurement": "concentration of LMB in the medium at which the production of MMP-9 is inhibited", "setting": "MMP-9; stimulating differentiation by calcium at a high concentration (1.5 mM), FIG. 1 (B)", "value": "≥ 2", "unit": "nM"}, {"measurement": "concentration of LMB in the medium at which the production of MMP-9 is inhibited", "setting": "MMP-9; stimulating inflammation by IL-1α 10^−10 M, FIG. 1 (E)", "value": "≥ 2", "unit": "nM"}, {"measurement": "concentration of LMB in the medium at which the production of MMP-9 is inhibited", "setting": "MMP-9; stimulating inflammation by TNF-α 10 ng/ml, FIG. 1 (D)", "value": "≥ 2", "unit": "nM"}, {"measurement": "concentration of LMB in the medium at which the production of MMP-9 is inhibited", "setting": "MMP-9; under no stimulation, FIG. 1 (A)", "value": "≥ 2", "unit": "nM"}, {"measurement": "production of MMP-9 (mRNA) as compared with GAPDH", "setting": "mRNA of human MMP-9 gene; stimulation with IL-1α 10^−10 M, Sample 9 and 10 in FIG. 2", "value": "inhibited"}, {"measurement": "production of MMP-9 (mRNA) as compared with GAPDH", "setting": "mRNA of human MMP-9 gene; stimulation with TGF-β 1 ng/ml, Sample 5 and 6 in FIG. 2", "value": "inhibited"}, {"measurement": "production of MMP-9 (mRNA) as compared with GAPDH", "setting": "mRNA of human MMP-9 gene; stimulation with TNF-α 10 ng/ml, Sample 7 and 8 in FIG. 2", "value": "inhibited"}, {"measurement": "production of MMP-9 (mRNA) as compared with GAPDH", "setting": "mRNA of human MMP-9 gene; stimulation with calcium at a high concentration (1.5 mM), Sample 3 and 4 in FIG. 2", "value": "inhibited"}, {"measurement": "production of MMP-9 (mRNA) as compared with GAPDH", "setting": "mRNA of human MMP-9 gene; under no stimulation, 24 hours, Sample 1 and 2 in FIG. 2", "value": "inhibited"}, {"measurement": "transcription activity of MMP-9", "setting": "MMP-9 promoter sequence; base sequence 1 (−80 to +16, KRE-M9 and TRE), FIG. 4 (A)", "value": "suppressed"}, {"measurement": "transcription activity of MMP-9", "setting": "MMP-9 promoter sequence; base sequence 2 (4-base substitution of KRE-M9 in base sequence 1), FIG. 4 (A)", "value": "suppressed"}, {"measurement": "transcription activity of MMP-9", "setting": "MMP-9 promoter sequence; base sequence 6 (base substitution of both KRE-M9 and TRE), FIG. 4 (B)", "value": "suppressed"}, {"measurement": "Promoter activity suppressed to (fraction of no LMB addition)", "setting": "MMP-9 promoter sequence; 12 hours after gene introduction", "value": "about one-fifth"}, {"measurement": "Promoter activity suppressed to (fraction of no LMB addition)", "setting": "MMP-9 promoter sequence; 24 hours after gene introduction", "value": "about one-seventh"}, {"measurement": "inflammatory cell infiltration in dermis and subcutaneous tissue", "setting": "[1]; [3]", "value": "suppressed"}, {"measurement": "keratinization of epidermal", "setting": "[1]; [3]", "value": "normal keratinization is manifested in epidermal in a concentration-dependent manner"}, {"measurement": "change of skin not irradiated with ultraviolet ray", "setting": "[1]; mice B2 to E2 not irradiated, external application 10 μg/ml to 10 ng/ml in 70% ethanol", "value": "significant change was not found"}, {"measurement": "anti-tumor action", "setting": "[2]", "value": "strong anti-tumor action"}]}]}
